Reference: article PMC9837764 (Nature Communications, 2023)
Several values for one entry are separate records, joined by “and”; a condition that tells them apart may be missing. Equal entries are not always repeated.

Assays:
[1] = human, in vivo; cited from earlier work
[2] = tested on: SARS-CoV-2; experiment: Combination of RdRp inhibitors with SARS-CoV-2 nsp14 inhibitors in infected Calu-3 cells, synergy; type: cell-based; set-up: EC99 mean: unit not given here; conditions: for Response (Fig3C source data for synergy analysis): MB-905 0 nM; for EC50: Severe acute respiratory syndrome coronavirus 2, Calu-3, read-out: EC50 mean
[3] = tested on: mouse bone marrow erythrocytes; conditions: Positive Control 25 mg/Kg i.p.
[4] = tested on: Human primary monocytes; experiment: Monocyte viability (LDH in supernatant); type: cell-based; conditions: 10 µM
Source text: Cellular Viability (%) Remdesivir
Supplementary Fig. 3. Citotoxicity of the compounds.
DMEM containing 2% fetal bovine serum.
Monocytes at a density of 1.5

[5] = tested on: Calu-3 cells; conditions: human
[6] = tested on: SARS-CoV-2; experiment: Cell-associated virus RNA in SARS-CoV-2-infected human primary monocytes; type: cell-based; conditions: for Cell-associated virus RNA levels in SARS-CoV-2-infected monocytes: Fig. 1c; for Cell-associated virus RNA loads, inhibition (Fig1C source data, per donor): monocytes
Protocol: (§1) Human primary monocytes were obtained after 3 h of plastic adherence of peripheral blood mononuclear cells (PBMCs). The use of primary human cell was approved by Institutional Review Board from the Oswaldo Cruz Foundation under protocol 49971421.8.0000.5248 with signed informed consent in accordance with the Hemotherapy Service of Hospital Clementino Fraga from the Federal University of Rio de Janeiro. All volunteers were de-identified. PBMCs were isolated from healthy donors by density gradient centrifugation (Ficoll-Paque, GE Healthcare). PBMCs (2.0 × 10^6 cells) were plated onto 48-well plates (NalgeNunc) in RPMI-1640 without serum for 2–4 h. Nonadherent cells were removed, and the remaining monocytes were maintained in DMEM with 5% human serum (HS; Millipore) and penicillin/streptomycin. The purity of human monocytes was above 95%, as determined by flow cytometric analysis (FACScan; Becton Dickinson) using anti-CD3 (BD Biosciences, cat # 555342, 1:40), anti-CD16 (Southern Biotech, cat # 561313, 1:20) and APC mouse IgG2a isotype (BD Biosciences, cat # 550882, 1/40) and PE mouse IgG1 isotype (BD Biosciences, 555749, 1/20).
Total viral RNA from a culture supernatant and/or monolayers was extracted using QIAamp Viral RNA (Qiagen®) according to the manufacturer’s instructions. Quantitative RT‒PCR was performed using GoTaq® Probe qPCR and RT-qPCR Systems (Promega) in a StepOne™ Real-Time PCR System (Thermo Fisher Scientific) ABI PRISM 7500 Sequence Detection System (Applied Biosystems). Amplifications were carried out in 25 µL reaction mixtures containing 2× reaction mix buffer, […] of each primer, 10 µM of probe, and 5 µL of RNA template. Primers, probes, and cycling conditions recommended by the Centers for Disease Control and Prevention (CDC) protocol were used to detect SARS-CoV-2[52]. The standard curve method was employed for virus quantification. For reference to the cell amounts used, the housekeeping gene RNAse P (F-5′-[…] -3′, R-5′[…] -3′, P-5′-FAM-[…] -BHQ-1-3′) was amplified. The Ct values for this target were compared to those obtained for different cell amounts, 10^7 to 10^2, for calibration.

[7] = tested on: SARS-CoV-2; experiment: Yield-reduction assay, SARS-CoV-2 in Calu-3 cells (titers as PFU/mL in Vero cells); conditions: for Inhibition of SARS-CoV-2 infectious titers (Fig1A source data, replicates): one treatment; for Inhibition of SARS-CoV-2 infectious titers (Fig1B source data, replicates): additional treatment at 24 h
[8] = in vitro; conditions: human
Protocol: Monolayers of 1.5 × 10^4 cells in 96-well plates were treated for 3 days with various concentrations (semilog dilutions from 1000 to 10 µM) of the antiviral drugs. Then, 5 mg/ml 2,3-bis-(2-methoxy-4-nitro-5-sulfophenyl)−2H-tetrazolium-5-carboxanilide (XTT) in DMEM was added to the cells in the presence of 0.01% N-methyl dibenzopyrazine methyl sulfate (PMS).

[9] = tested on: IL-6; experiment: IL-6 in supernatant of SARS-CoV-2-infected human primary monocytes; type: cell-based; conditions: infected monocytes, drugs at 10 µM, 24 h
Protocol: as §1

[10] = tested on: TNF-α; experiment: TNF-α in supernatant of SARS-CoV-2-infected human primary monocytes; type: cell-based; conditions: infected monocytes, drugs at 10 µM, 24 h
Protocol: as §1

[11] = tested on: SARS-CoV-2; experiment: Genomic and subgenomic viral RNA in infected Calu-3 cells (RT-PCR); type: cell-based; conditions: Calu-3, 10 µM, 48 h
[12] = Severe acute respiratory syndrome coronavirus 2, Calu-3
[13] = Severe acute respiratory syndrome coronavirus 2, Calu-3, 24 h
[14] = Drug 0.001, Calu-3, MOI 0.1, 48 h
[15] = infected Calu-3, compound alone at 10 uM

| Structure (SMILES) | EC50 [2] | CC50 [5] | Cell-associated virus RNA levels in SARS-CoV-2-infected monocytes [6] | Cell-associated virus RNA loads, inhibition (Fig1C source data, per donor) ([6]; 24 h, Drug 1) | Cell-associated virus RNA loads, inhibition (Fig1C source data, per donor) ([6]; 24 h, Drug 10) | Cell-associated virus RNA loads, inhibition (Fig1C source data, per donor) ([6]; MOI 0.1, 24 h, Drug 0.1) | EC50 [7, 12] | EC50 [7, 13] | Inhibition of SARS-CoV-2 infectious titers (Fig1A source data, replicates) [7, 14] | Inhibition of SARS-CoV-2 infectious titers (Fig1A source data, replicates) ([7]; Drug 0.01) | Inhibition of SARS-CoV-2 infectious titers (Fig1A source data, replicates) ([7]; Drug 0.1) | Inhibition of SARS-CoV-2 infectious titers (Fig1A source data, replicates) ([7]; Drug 1) | Inhibition of SARS-CoV-2 infectious titers (Fig1A source data, replicates) ([7]; Drug 10) | CC50 [8] | further results |
| --- | --- | --- | --- | --- | --- | --- | --- | --- | --- | --- | --- | --- | --- | --- | --- |
| C[C@@H]1CCO[C@H]2Cn3cc(C(=O)NCc4ccc(F)cc4F)c(=O)c(O)c3C(=O)N12 [DTG, dolutegravir] | 5.3 µM |  |  |  |  |  |  |  |  |  |  |  |  |  | Cmax [1]: 15 µM; Plasma concentration at Cmin [1]: 1.5 µM; Response (Fig3C source data for synergy analysis) ([2]; DTG 1000 nM): 14; Response (Fig3C source data for synergy analysis) ([2]; DTG 5000 nM): 53; Response (Fig3C source data for synergy analysis) ([2]; DTG 10000 nM): 74; Response (Fig3C source data for synergy analysis) ([2]; DTG 15000 nM): 75; Effects on SARS-CoV-2 replication ([2]; alone at 5 µM, Calu-3): marginal effects; Virus productive titers (Fig3B source data, replicates) ([2]; infected Calu-3, DTG alone at 5uM): 224000 and 448000 |
| O=P1(N(CCCl)CCCl)NCCCO1 (stereo not shown) [Cyclophosphamide, reference compound] |  |  |  |  |  |  |  |  |  |  |  |  |  |  | MNPCE/4,000 PCE (Mean ± S.D.) [3]: 16.20 ± 6.03; Ratio PCE/NCE (Mean ± S.D.) [3]: 1.44 ± 0.29 |
| CC(C)C(=O)OC[C@H]1O[C@@H](n2ccc(NO)nc2=O)[C@H](O)[C@@H]1O [MK-4482, molnupiravir, reference compound] | 0.8 µM | 53 ± 12 µM | relatively low activity | 25 (2×) and 23 | 1 | 12 (2×) and 18 | 0.72 ± 0.12 µM | 0.02 ± 0.008 µM | 3 and 4 and 5 | 13 and 6 and 16 | 48 and 30 and 35 | 71 and 60 and 50 | 100 and 99 and 95 | 58 ± 18 µM | Monocyte viability [4]: drastically reduced; EC99 mean ([2]; Calu-3 cells, alone or with nsp14 inhibitor at the concentration of the label, unit not given): 9; EC90 ([2]; Severe acute respiratory syndrome coronavirus 2, Calu-3, read-out: EC90 mean): 7 µM |
| OC[C@H]1O[C@@H](n2cnc3c(NCc4ccco4)ncnc32)[C@H](O)[C@@H]1O [MB-801, Kinetin riboside] |  | 530 ± 65 µM | reduced cell-associated virus RNA levels in a concentration-dependent manner | 36 and 65 and 10 and 20 and 30 and 40 | 33 and 76 and 10 and 20 and 30 and 36 | 17 and 66 and 24 and 12 and 9 and 25 | 0.18 ± 0.02 µM | 0.02 ± 0.003 µM | 2 and 4 and 5 | 27 and 20 and 32 | 40 and 53 and 50 | 63 and 67 and 57 | 95 and 94 and 72 | 550 ± 32 µM | Inhibition of SARS-CoV-2 infectious titers (Fig1B source data, replicates) ([7]; Drug 0.001, Calu-3, 48 h): 18 and 20 and 16; Inhibition of SARS-CoV-2 infectious titers (Fig1B source data, replicates) ([7]; Drug 0.01): 39 and 40 and 54; Inhibition of SARS-CoV-2 infectious titers (Fig1B source data, replicates) ([7]; Drug 0.1): 62 and 60 and 58; Inhibition of SARS-CoV-2 infectious titers (Fig1B source data, replicates) ([7]; Drug 1): 81 and 86 and 58; Inhibition of SARS-CoV-2 infectious titers (Fig1B source data, replicates) ([7]; Drug 10): 98 (2×) and 99; Virus productive titers (Fig3A source data, replicates) [2, 15]: 32000 and 36000 and 38000; Virus productive titers (Fig3B source data, replicates) [2, 15]: 32000 and 36000 and 38000; IL-6 levels in the culture supernatant (Fig1E source data, per donor) [9]: 2.2 and 1.8 and 0.121 and 4.3 and 3.4 and 0.355 and 1.5 and 2.9; TNF-α levels in the culture supernatant (Fig1D source data, per donor) [10]: 1.6 and 1.8 and 0.638 and 4.1 and 2.6; Genomic viral RNA (Fig2B source data, replicates) [11]: 0.3 and 0.1 and 0.22; Subgenomic viral RNA (Fig2B source data, replicates) [11]: 0.5 and 0.45 and 0.56 |
